# Experimental data taken from article PMC6442474 (Planta medica, 2014).
# Target: tau (2N4R) (Homo sapiens, UniProt P10636)
# Assay: arachidonic acid-induced tau aggregation, filter trap assay dose-response
# Type: biochemical
# tau (2N4R), sequence (P10636 1-441 isoform P10636-8): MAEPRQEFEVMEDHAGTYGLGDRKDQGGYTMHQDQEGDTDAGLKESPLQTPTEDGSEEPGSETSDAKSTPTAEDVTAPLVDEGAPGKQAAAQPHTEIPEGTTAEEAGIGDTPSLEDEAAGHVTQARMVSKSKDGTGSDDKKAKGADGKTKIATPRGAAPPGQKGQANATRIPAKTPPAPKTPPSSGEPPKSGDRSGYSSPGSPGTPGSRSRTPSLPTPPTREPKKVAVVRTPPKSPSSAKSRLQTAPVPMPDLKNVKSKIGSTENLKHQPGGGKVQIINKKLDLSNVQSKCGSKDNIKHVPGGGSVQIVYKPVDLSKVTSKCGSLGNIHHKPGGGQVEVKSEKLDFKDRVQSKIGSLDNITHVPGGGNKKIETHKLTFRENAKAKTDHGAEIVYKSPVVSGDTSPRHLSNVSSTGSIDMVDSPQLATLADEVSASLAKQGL
row,Molecule,IC50 [µM]
1,"O=C1c2cc(CO)cc(O)c2C(=O)c2c1cc(O)c(O)c2O [2,ω-dihydroxyemodin]",205 ± 28
2,O=C1c2c(cc(CO)c(O)c2O)C(=O)c2c(O)c(O)cc(O)c21 [asperthecin],39 ± 2
3,asperbenzaldehyde,177 ± 103
